Measured values from ChEMBL document CHEMBL1201862, “PubChem BioAssay data set” (2004).
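Tested at 5 concentrations; 48 h exposure; 96-well plates; endpoints linearly interpolated, else capped at highest concentration. GI50: concentration for 50% inhibition of growth.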 Active and inactive are the calls of the source. Cut-off read from the data, not from the text of the source: active = GI50 up to about 1.1 µM and inactive = higher. Where a SMILES comes first, the peptide text is derived from it. The star is where a group is joined. Boc = CC(C)(C)OC(=O)*; OBn = c1ccc(CO*)cc1

Legend:
Assay in all cases: DTP human tumour cell line panel, 48 h
A498 = tested on: A498
A549 = tested on: A549
ACHN = tested on: ACHN
BT-549 = tested on: BT-549
CAKI-1 = tested on: CAKI-1
CCRF-CEM = tested on: CCRF-CEM
COLO 205 = tested on: COLO 205
DU-145 = tested on: DU-145
EKVX = tested on: EKVX
HCC 2998 = tested on: HCC 2998
HCT-116 = tested on: HCT-116
HCT-15 = tested on: HCT-15
HL-60 = tested on: HL-60
HOP-62 = tested on: HOP-62
HOP-92 = tested on: HOP-92
HT-29 = tested on: HT-29
Hs-578T = tested on: Hs-578T
IGROV-1 = tested on: IGROV-1
K562 = tested on: K562
KM12 = tested on: KM12
LOX IMVI = tested on: LOX IMVI
M14 = tested on: M14
MCF7 = tested on: MCF7
MDA-MB-231 = tested on: MDA-MB-231
MDA-MB-435 = tested on: MDA-MB-435
MDA-N = tested on: MDA-N
MOLT-4 = tested on: MOLT-4
NCI-H226 = tested on: NCI-H226
NCI-H23 = tested on: NCI-H23
NCI-H460 = tested on: NCI-H460
NCI-H522 = tested on: NCI-H522
NCI/ADR-RES = tested on: NCI/ADR-RES
OVCAR-3 = tested on: OVCAR-3
OVCAR-4 = tested on: OVCAR-4
OVCAR-5 = tested on: OVCAR-5
OVCAR-8 = tested on: OVCAR-8
PC-3 = tested on: PC-3
RPMI-8226 = tested on: RPMI-8226
RXF 393 = tested on: RXF 393
SF-268 = tested on: SF-268
SF-295 = tested on: SF-295
SF-539 = tested on: SF-539
SK-MEL-28 = tested on: SK-MEL-28
SK-MEL-2 = tested on: SK-MEL-2
SK-MEL-5 = tested on: SK-MEL-5
SK-OV-3 = tested on: SK-OV-3
SN12C = tested on: SN12C
SNB-19 = tested on: SNB-19
SNB-75 = tested on: SNB-75
SR = tested on: SR
SW-620 = tested on: SW-620
T47D = tested on: T47D
TK-10 = tested on: TK-10
U-251 = tested on: U-251
UACC-257 = tested on: UACC-257
UACC-62 = tested on: UACC-62
UO-31 = tested on: UO-31
786-0 = tested on: 786-0
Malme-3M = tested on: Malme-3M

Cc1c(N)nc([C@H](CC(N)=O)NC[C@H](N)C(N)=O)nc1C(=O)N[C@H](C(=O)N[C@H](C)[C@@H](O)CC(=O)N[C@H](C(=O)NC(O[C@@H]1O[C@@H](C)[C@@H](N)[C@@H](O)[C@H]1O)C(O)c1nc(-c2nc(C(=O)NCCCCN)cs2)cs1)[C@@H](C)O)[C@@H](O[C@@H]1O[C@@H](CO)[C@@H](O)[C@H](O)[C@@H]1O[C@H]1O[C@H](CO)[C@@H](O)[C@H](OC(N)=O)[C@@H]1O)c1c[nH]cn1 (stereo partly specified)
GI50 (A498): > 50 µM (inactive) | GI50 (A549): 18.7 µM (inactive) | GI50 (ACHN): 0.223 µM (active) | GI50 (BT-549): > 50 µM (inactive) | GI50 (CAKI-1): 5.85 µM (inactive) | GI50 (CCRF-CEM): > 50 µM (inactive) | GI50 (COLO 205): > 50 µM (inactive) | GI50 (DU-145): > 27.7 µM (inactive) | GI50 (EKVX): > 50 µM (inactive) | GI50 (HCC 2998): 0.134 µM (active) | GI50 (HCT-116): 3.86 µM (inactive) | GI50 (HCT-15): > 32.2 µM | GI50 (HL-60): > 44.2 µM (inactive) | GI50 (HOP-62): 1.98 µM (inactive) | GI50 (HOP-92): 12.9 µM (inactive) | GI50 (HT-29): > 50 µM (inactive) | GI50 (Hs-578T): 18.7 µM (inactive) | GI50 (IGROV-1): 16 µM (inactive) | GI50 (K562): > 50 µM (inactive) | GI50 (KM12): 49.1 µM (inactive) | GI50 (LOX IMVI): 2.89 µM (inactive) | GI50 (M14): > 36.9 µM (inactive) | GI50 (MCF7): > 39.9 µM (inactive) | GI50 (MDA-MB-231): > 50 µM (inactive) | GI50 (MDA-MB-435): > 50 µM (inactive) | GI50 (MDA-N): > 50 µM (inactive) | GI50 (MOLT-4): > 39.9 µM (inactive) | GI50 (NCI-H226): 0.216 µM (active) | GI50 (NCI-H23): 5.73 µM (inactive) | GI50 (NCI-H460): 0.145 µM (active) | GI50 (NCI-H522): 11.2 µM (inactive) | GI50 (NCI/ADR-RES): 7.89 µM (inactive) | GI50 (OVCAR-3): > 48.1 µM (inactive) | GI50 (OVCAR-4): > 50 µM (inactive) | GI50 (OVCAR-5): > 50 µM (inactive) | GI50 (OVCAR-8): 12.6 µM (inactive) | GI50 (PC-3): > 50 µM (inactive) | GI50 (RPMI-8226): > 50 µM (inactive) | GI50 (RXF 393): 7.67 µM (inactive) | GI50 (SF-268): 16.1 µM (inactive) | GI50 (SF-295): 1.14 µM (inactive) | GI50 (SF-539): 0.311 µM (active) | GI50 (SK-MEL-28): > 50 µM (inactive) | GI50 (SK-MEL-2): > 50 µM (inactive) | GI50 (SK-MEL-5): 12.6 µM (inactive) | GI50 (SK-OV-3): > 50 µM (inactive) | GI50 (SN12C): 16.5 µM (inactive) | GI50 (SNB-19): > 50 µM (inactive) | GI50 (SNB-75): 6.73 µM (inactive) | GI50 (SR): 0.0316 µM (active) | GI50 (SW-620): > 50 µM (inactive) | GI50 (T47D): > 50 µM (inactive) | GI50 (TK-10): > 50 µM (inactive) | GI50 (U-251): > 50 µM (inactive) | GI50 (UACC-257): > 50 µM (inactive) | GI50 (UACC-62): 11.9 µM (inactive) | GI50 (UO-31): 3.78 µM (inactive)

CC(NC(=O)C(Cc1ccccc1)NC(=O)C(Cc1ccccc1)NC(=O)OC(C)(C)C)C(=O)OCc1ccccc1 (stereo not drawn) (Boc-Phe-Phe-Ala-OBn; configuration not given here)
GI50 (786-0): > 100 µM (inactive) | GI50 (A498): > 100 µM (inactive) | GI50 (A549): > 100 µM (inactive) | GI50 (BT-549): > 100 µM (inactive) | GI50 (CAKI-1): > 10 µM (inactive) | GI50 (CCRF-CEM): 58.3 µM (inactive) | GI50 (COLO 205): 65.3 µM (inactive) | GI50 (DU-145): > 100 µM (inactive) | GI50 (EKVX): > 100 µM (inactive) | GI50 (HCC 2998): 54.2 µM (inactive) | GI50 (HCT-116): 76.9 µM (inactive) | GI50 (HL-60): 31.8 µM (inactive) | GI50 (HOP-62): > 100 µM (inactive) | GI50 (HOP-92): 20.4 µM (inactive) | GI50 (HT-29): 75.9 µM (inactive) | GI50 (Hs-578T): 73.3 µM (inactive) | GI50 (IGROV-1): > 100 µM (inactive) | GI50 (K562): 64.3 µM (inactive) | GI50 (KM12): > 100 µM (inactive) | GI50 (LOX IMVI): > 100 µM (inactive) | GI50 (M14): 48.4 µM (inactive) | GI50 (MCF7): 53.5 µM (inactive) | GI50 (MDA-MB-231): > 100 µM (inactive) | GI50 (MDA-MB-435): > 100 µM (inactive) | GI50 (MDA-N): > 100 µM (inactive) | GI50 (MOLT-4): 54.7 µM (inactive) | GI50 (Malme-3M): 93.1 µM (inactive) | GI50 (NCI-H226): 6.05 µM (inactive) | GI50 (NCI-H23): > 100 µM (inactive) | GI50 (NCI-H460): > 100 µM (inactive) | GI50 (NCI-H522): 68.1 µM (inactive) | GI50 (NCI/ADR-RES): > 100 µM (inactive) | GI50 (OVCAR-3): > 100 µM (inactive) | GI50 (OVCAR-5): > 100 µM (inactive) | GI50 (OVCAR-8): > 100 µM (inactive) | GI50 (PC-3): 68.7 µM (inactive) | GI50 (RPMI-8226): 32.3 µM (inactive) | GI50 (RXF 393): 30.7 µM (inactive) | GI50 (SF-268): > 100 µM (inactive) | GI50 (SF-295): 43.5 µM (inactive) | GI50 (SF-539): 37.9 µM (inactive) | GI50 (SK-MEL-2): > 100 µM (inactive) | GI50 (SK-MEL-5): 94.2 µM (inactive) | GI50 (SK-OV-3): > 100 µM (inactive) | GI50 (SN12C): > 100 µM (inactive) | GI50 (SNB-75): 50.8 µM (inactive) | GI50 (SR): 28.6 µM (inactive) | GI50 (SW-620): > 100 µM (inactive) | GI50 (T47D): > 100 µM (inactive) | GI50 (TK-10): 76.2 µM (inactive) | GI50 (U-251): 63.7 µM (inactive) | GI50 (UACC-257): > 100 µM (inactive) | GI50 (UACC-62): 49.4 µM (inactive) | GI50 (UO-31): 27.7 µM (inactive)
